Experimental findings from patent publication US20040121994A1, “Novel amides that activate soluble guanylate cyclase” (priority 2002, published 2004) are described below.

Data set [1] concerns the target T1, soluble guanylate cyclase (sGC), α1 and β1 subunits of guanylate cyclase expressed in Sf9 cells (Homo sapiens, UniProt Q02108+Q02153).
T1 construct: made in house; host or cells: Sf9 insect cells (baculovirus co-infection)
T1 sequence (Q02108 1-690): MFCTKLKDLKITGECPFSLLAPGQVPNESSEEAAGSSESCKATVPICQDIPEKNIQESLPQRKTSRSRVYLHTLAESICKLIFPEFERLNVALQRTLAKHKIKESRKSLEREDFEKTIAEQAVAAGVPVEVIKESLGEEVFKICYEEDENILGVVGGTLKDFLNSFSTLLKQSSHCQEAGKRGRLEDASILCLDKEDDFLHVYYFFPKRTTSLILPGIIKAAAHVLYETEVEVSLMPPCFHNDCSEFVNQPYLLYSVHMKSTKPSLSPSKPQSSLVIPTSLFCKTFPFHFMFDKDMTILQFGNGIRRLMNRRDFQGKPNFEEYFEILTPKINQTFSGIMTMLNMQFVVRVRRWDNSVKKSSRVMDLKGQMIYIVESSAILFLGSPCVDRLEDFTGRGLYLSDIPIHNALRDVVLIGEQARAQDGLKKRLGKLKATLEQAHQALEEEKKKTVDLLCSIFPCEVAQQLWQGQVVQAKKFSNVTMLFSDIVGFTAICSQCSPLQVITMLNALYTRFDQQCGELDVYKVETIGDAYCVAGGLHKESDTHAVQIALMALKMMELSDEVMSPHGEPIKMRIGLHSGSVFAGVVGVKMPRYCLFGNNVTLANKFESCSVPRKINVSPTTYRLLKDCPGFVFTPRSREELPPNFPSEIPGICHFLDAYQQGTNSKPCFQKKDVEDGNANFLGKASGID
T1 sequence (Q02153 1-619): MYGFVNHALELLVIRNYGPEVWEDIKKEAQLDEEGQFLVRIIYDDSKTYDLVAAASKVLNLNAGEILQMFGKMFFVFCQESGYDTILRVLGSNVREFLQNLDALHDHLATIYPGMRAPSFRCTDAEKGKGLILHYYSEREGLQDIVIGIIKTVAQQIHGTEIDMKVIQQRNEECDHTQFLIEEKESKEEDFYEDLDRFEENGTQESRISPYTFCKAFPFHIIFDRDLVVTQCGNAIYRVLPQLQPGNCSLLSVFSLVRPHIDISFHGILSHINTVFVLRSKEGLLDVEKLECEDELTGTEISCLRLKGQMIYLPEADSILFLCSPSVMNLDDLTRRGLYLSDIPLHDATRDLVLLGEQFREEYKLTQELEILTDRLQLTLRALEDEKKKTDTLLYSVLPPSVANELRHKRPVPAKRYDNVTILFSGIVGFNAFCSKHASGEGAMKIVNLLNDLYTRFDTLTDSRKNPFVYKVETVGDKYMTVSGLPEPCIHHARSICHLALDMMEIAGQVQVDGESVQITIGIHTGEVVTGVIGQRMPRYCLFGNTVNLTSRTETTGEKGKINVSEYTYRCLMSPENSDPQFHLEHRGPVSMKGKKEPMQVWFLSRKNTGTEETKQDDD
The experiment in a line: Guanylate cyclase assay (formation of cyclic GMP from GTP). The data set is classed as biochemical. To be noted: for Mean activation at 100 μM: (activity of compound at 100 μM with 1 μM SNP)−(activity of compound at 100 μM)/(activity of SNP at 1 μM)−(basal activity of sGC); for Mean efficacy of compound combined with 1 μM of SNP, [%]: compound at 100 μM with 1 μM sodium nitro prusside (SNP); for Emax at 100 µM: read-out: Mean basal efficacy of compound alone at 100 μM, [%]. The procedure, abridged:
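Sf9 high-speed supernatant with human sGC α1/β1 converted 1 mM GTP to cGMP over 15 min at 37 °C (50 mM Tris pH 7.6, 4 mM MgCl2, 0.5 mM IBMX); cGMP by enzyme immunoassay. Compounds at 100 μM, with or without 1 μM SNP; activity expressed relative to 100 μM YC-1 (no SNP) as 100%.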

Setting [2] is: normalized with the activity of 100 μM YC-1 (without SNP) as 100%.
[3] abbreviates: compound at 100 μM without SNP, normalized with the activity of 100 μM YC-1 (without SNP) as 100%.

Take `O=C(/C=C/c1ccccc1Sc1ccc(Cl)cc1Cl)NCCCCO` [Example 29, (2E)-3-{2-[(2,4-dichlorophenyl)thio]phenyl}-N-(4-hydroxybutyl)acrylamide]: the melting point (in general, the temperature of the solid-liquid transition) lay within 68 to 71 °C. For the same compound, in data set [1], the “Mean activation at 100 μM” value stood at 2.9. Moreover, the “Mean efficacy of compound combined with 1 μM of SNP, [%]” value (from here on “Mean efficacy … [%]”) in data set [1] (setting [2]) is reported as 110%. Besides, the Emax at 100 µM in data set [1] (setting [3]) stood at 69%.

Consider `O=C(/C=C/c1ccccc1Sc1ccc(Cl)cc1)NC1CCC(O)CC1` (stereo not drawn) [Example 30, (2E)-3-{2-[(4-chlorophenyl)thio]phenyl}-N-(4-hydroxycyclohexyl)acrylamide], for which the melting point was in the range of 86 to 88 °C. Further, the “Mean activation at 100 μM” value in data set [1] stood at 3.4. Besides, the “Mean efficacy … [%]” value in data set [1] (setting [2]) is reported as 289%. Also, the Emax at 100 µM in data set [1] (setting [3]) amounted to 66%.

Turning to `COc1ccc(Sc2ccccc2/C=C/C(=O)NCCCCO)cc1` [Example 43, (2E)-N-(4-hydroxybutyl)-3-{2-[(4-methoxyphenyl)thio]phenyl}acrylamide], the melting point is 134 to 136 °C. Also, the “Mean activation at 100 μM” value in data set [1] was found to be 9.5. Besides, in data set [1] (setting [2]), the “Mean efficacy … [%]” value turned out to be 160%. In addition, the Emax at 100 µM in data set [1] (setting [3]) is 54%.

With `COc1cccc(Sc2ccccc2/C=C/C(=O)NC2CCC(O)CC2)c1` (stereo not drawn) [Example 50, (2E)-N-(4-hydroxycyclohexyl)-3-{2-[(3-methoxyphenyl)thio]phenyl}acrylamide], in data set [1], the “Mean activation at 100 μM” value is given as 6.4. Also, the “Mean efficacy … [%]” value in data set [1] (setting [2]) was 175%. For the same compound, the Emax at 100 µM in data set [1] (setting [3]) came to 68%.

As for `COc1ccc(Sc2ccccc2/C=C/C(=O)NC2CCC(O)CC2)cc1` (stereo not drawn) [Example 51, (2E)-N-(4-hydroxycyclohexyl)-3-{2-[(4-methoxyphenyl)thio]phenyl}acrylamide], the “Mean activation at 100 μM” value in data set [1] is 7.2. Moreover, the “Mean efficacy … [%]” value in data set [1] (setting [2]) came to 258%. Also, in data set [1] (setting [3]), the Emax at 100 µM was 119%.

With `Cc1cccc(Sc2ccccc2/C=C/C(=O)NC2CCC(O)CC2)c1` (stereo not drawn) [Example 52, (2E)-N-(4-hydroxycyclohexyl)-3-{2-[(3-methylphenyl)thio]phenyl}acrylamide], the “Mean activation at 100 μM” value in data set [1] was 2.7. For the same compound, the “Mean efficacy … [%]” value in data set [1] (setting [2]) turned out to be 50%. Besides, the Emax at 100 µM in data set [1] (setting [3]) came out at 11%.

`Cc1ccc(Sc2ccccc2/C=C/C(=O)NC(C)CCCC(C)(C)O)c(C)c1` (stereo not drawn) [Example 53, (2E)-3-{2-[(2,4-dimethylphenyl)thio]phenyl}-N-(5-hydroxy-1,5-dimethylhexyl)acrylamide]: the “Mean activation at 100 μM” value in data set [1] was 1.7. Besides, the “Mean efficacy … [%]” value in data set [1] (setting [2]) is recorded as 10%. In addition, the Emax at 100 µM in data set [1] (setting [3]) came to 4%.

On to `O=C(/C=C/c1cc(F)ccc1Sc1ccc(Cl)cc1)NCCCCO` [Example 54, (2E)-3-{2-[(4-chlorophenyl)thio]-5-fluorophenyl}-N-(4-hydroxybutyl)acrylamide], for which the “Mean activation at 100 μM” value in data set [1] came to 13.0. Further, in data set [1] (setting [2]), the “Mean efficacy … [%]” value amounted to 186%. In data set [1] (setting [3]), the Emax at 100 µM was determined as 85%.

With `CC(C)CCSc1ccccc1/C=C/C(=O)NC1CCC(O)CC1` (stereo not drawn) [Example 55, (2E)-N-(4-hydroxycyclohexyl)-3-{2-[(3-methylbutyl)thio]phenyl}acrylamide], the “Mean activation at 100 μM” value in data set [1] is 5.3. The “Mean efficacy … [%]” value in data set [1] (setting [2]) is recorded as 213%. Besides, the Emax at 100 µM in data set [1] (setting [3]) amounted to 143%.

With `CC(C)CCSc1ccccc1/C=C/C(=O)NC1CCCCC1O` (stereo not drawn) [Example 56, (2E)-N-(2-hydroxycyclohexyl)-3-{2-[(3-methylbutyl)thio]phenyl}acrylamide], in data set [1], the “Mean activation at 100 μM” value came out at 8.3. Further, in data set [1] (setting [2]), the “Mean efficacy … [%]” value was 276%. For the same compound, in data set [1] (setting [3]), the Emax at 100 µM came out at 169%.

With `CC(C)CCSc1ccccc1/C=C/C(=O)NCCCO` [Example 57, (2E)-N-(3-hydroxypropyl)-3-{2-[(3-methylbutyl)thio]phenyl}acrylamide], in data set [1], the “Mean activation at 100 μM” value turned out to be 8.4. Further, in data set [1] (setting [2]), the “Mean efficacy … [%]” value came out at 303%. In addition, the Emax at 100 µM in data set [1] (setting [3]) was determined as 200%.

Take `CC(C)CCSc1ccccc1/C=C/C(=O)NCCCCO` [Example 58, (2E)-N-(4-hydroxybutyl)-3-{2-[(3-methylbutyl)thio]phenyl}acrylamide]: in data set [1], the “Mean activation at 100 μM” value is reported as 7.8. For the same compound, the “Mean efficacy … [%]” value in data set [1] (setting [2]) is given as 307%. Also, in data set [1] (setting [3]), the Emax at 100 µM came to 215%.

As for `CC(C)CCSc1ccccc1/C=C/C(=O)NCCCCCO` [Example 59, (2E)-N-(5-hydroxypentyl)-3-{2-[(3-methylbutyl)thio]phenyl}acrylamide], the “Mean activation at 100 μM” value in data set [1] was determined as 8.4. The “Mean efficacy … [%]” value in data set [1] (setting [2]) was determined as 221%. Moreover, the Emax at 100 µM in data set [1] (setting [3]) turned out to be 162%.

Regarding `CC(C)CCSc1ccccc1/C=C/C(=O)N1CCC(O)CC1` [Example 60, 1-((2E)-3-{2-[(3-methylbutyl)thio]phenyl}-2-propenoyl)-4-piperidinol], the “Mean activation at 100 μM” value in data set [1] was found to be 8.3. Besides, the “Mean efficacy … [%]” value in data set [1] (setting [2]) was found to be 165%. Also, the Emax at 100 µM in data set [1] (setting [3]) was determined as 115%.

Take `CC(C)CCSc1ccccc1/C=C/C(=O)N1CCCC(O)C1` (stereo not drawn) [Example 61, 1-((2E)-3-{2-[(3-methylbutyl)thio]phenyl}-2-propenoyl)-3-piperidinol]: the “Mean activation at 100 μM” value in data set [1] is 10.2. In addition, the “Mean efficacy … [%]” value in data set [1] (setting [2]) came out at 165%. For the same compound, in data set [1] (setting [3]), the Emax at 100 µM was 103%.

Regarding `CC(C)CCSc1ccccc1/C=C/C(=O)N1CCC(C(N)=O)CC1` [Example 63, 1-((2E)-3-{2-[(3-methylbutyl)thio]phenyl}-2-propenoyl)-4-piperidinecarboxamide], in data set [1], the “Mean activation at 100 μM” value amounted to 6.8. For the same compound, in data set [1] (setting [2]), the “Mean efficacy … [%]” value was 164%. The Emax at 100 µM in data set [1] (setting [3]) turned out to be 125%.

For the compound `OCc1ccc(-c2nn(Cc3ccccc3)c3ccccc23)o1` [YC-1, 1-Benzyl-3-hydroxymethyl-2-furylindazole, reference compound], the “Mean activation at 100 μM” value in data set [1] came out at 2.7. Moreover, in data set [1] (setting [2]), the “Mean efficacy … [%]” value turned out to be 224%. The “Mean basal efficacy of compound alone at 100 μM, [%]” value in data set [1] (setting [3]) stood at 100%.
